The source made the active and inactive calls. The calls are words filed in the database; no cut-off is given here.
Tests used:
Rattus norvegicus [1] = assay: Antiinflammatory activity in Wistar rat mycobacterial adjuvant-induced arthritis model assessed as suppression of secondary lesions at 30 mg/kg/day, po measured on day 14; format: functional, organism-based
Rattus norvegicus [2] = assay: Antiinflammatory activity in Wistar rat mycobacterial adjuvant-induced arthritis model assessed as inhibition of swelling at 30 mg/kg/day, po measured on day 3 relative to control; format: functional; conditions: 72 h
Rattus norvegicus [3] = assay: Antiinflammatory activity in Wistar rat mycobacterial adjuvant-induced arthritis model assessed as inhibition of swelling at 30 mg/kg/day, po measured on day 14 relative to control; format: functional; conditions: 336 h
Rattus norvegicus [4] = assay: Toxicity in Wistar rat mycobacterial adjuvant-induced arthritis model assessed as increase in body weight at 30 mg/kg/day, po after 14 days (reference value: 19 g); format: organism-based; design: route oral; conditions: in vivo, 336 h

O=C(O)c1ccc(=O)n([C@@H]2O[C@H](CO)[C@@H](O)[C@H]2O)c1
Activity (Rattus norvegicus [1]): inactive
inhibition in vivo at 30 mg/kg/day (Rattus norvegicus [2]): 21%
inhibition in vivo at 30 mg/kg/day (Rattus norvegicus [3]): 37%
Activity (Rattus norvegicus [4]): 22 g

COc1ccc2cc([C@H](C)C(=O)O)ccc2c1 [NAPROXEN]
inhibition in vivo at 30 mg/kg/day (Rattus norvegicus [3]): 65%

Source: ChEMBL document CHEMBL3244291, “Synthesis and antiinflammatory activity of 6-oxo-1-(beta-D-ribofuranosyl)nocotinic acid and related derivatives” (J Med Chem, 1978)
